The source of these data is ChEMBL document CHEMBL1142408, “Synthesis and biological evaluation of 10,11-dihydrodictyostatin, a potent analogue of the marine anticancer agent dictyostatin” (J Nat Prod, 2008).

Structures are written as SMILES. The source made the active and inactive calls. The calls are words filed in the database; no cut-off is given here.

Common to all, as to type: functional, cell-based
Assay [1] has as its system PANC-1. As to the kind of experiment: Cytotoxicity against human PANC1 cells after 72 hrs by MTT assay. The following applies: PANC-1, 72 h.
Assay [2] can be described thus: Cytotoxicity against taxol-resistant human NCI/ADR cells after 72 hrs by MTT assay. The conditions noted are these: NCI/ADR-RES.
Another assay has as its system DLD-1. In words: Cytotoxicity against human DLD1 cells after 72 hrs by MTT assay. The conditions noted are these: DLD-1, 72 h.
The next assay has as its system ASPC1. In words: Cytotoxicity against human AsPC1 cells after 72 hrs by MTT assay. The conditions noted are these: ASPC1, 72 h.
Assay [3] concerns PANC-1. In words: Cell cycle arrest in human PANC1 cells assessed as accumulation at G2/M phase after 24 hrs.
Assay [4] deals with PANC-1. As to the kind of experiment: Microtubule polymerization in human PANC1 cells.
A further assay relates to P388. As to the kind of experiment: Cytotoxicity against mouse P388 cells by MTT assay.

For `C=C/C=C\[C@H](C)[C@@H]1OC(=O)/C=C\C=C\[C@@H](C)[C@@H](O)C[C@H](O)CC[C@H](C)[C@H](O)[C@@H](C)C[C@@H](C)CC[C@@H](O)[C@@H]1C`, the IC50 in the assay on PANC-1 [1] was 0.018 µM; in assay [2] it was 0.3 µM; with DLD-1, 0.01 µM; with ASPC1 it was 0.043 µM. For the same compound, the result in the assay on PANC-1 [3] and in the assay on PANC-1 [4] was Active.

Turning to `C=C/C=C\[C@H](C)[C@@H]1OC(=O)/C=C\C=C\[C@@H](C)[C@@H](O)C[C@H](O)/C=C\[C@H](C)[C@H](O)[C@@H](C)C[C@@H](C)CC[C@@H](O)[C@@H]1C` [DICTYOSTATIN], the 50% inhibitory concentration (IC50) in the assay on PANC-1 [1] turned out to be 0.0034 µM; in assay [2] it was 0.0098 µM; in the assay with DLD-1, 0.0008 µM; in the assay on ASPC1, 0.009 µM.

Turning to `C=C/C=C\[C@H](C)[C@H](OC(N)=O)[C@@H](C)[C@H](O)[C@@H](C)C/C(C)=C\[C@H](C)[C@@H](O)[C@@H](C)/C=C\[C@@H](O)C[C@@H]1OC(=O)[C@H](C)[C@@H](O)[C@H]1C` [DISERMOLIDE], the concentration for half-maximal inhibition (IC50) with PANC-1 [1] is 0.059 µM; in assay [2], 0.16 µM; in the assay with DLD-1 it was 0.029 µM; in the assay with ASPC1, 0.098 µM; in the assay with P388, 0.035 µM.

As to `CC(=O)O[C@H]1C(=O)[C@@]2(C)[C@H]([C@H](OC(=O)c3ccccc3)[C@]3(O)C[C@H](OC(=O)[C@H](O)[C@@H](NC(=O)c4ccccc4)c4ccccc4)C(C)=C1C3(C)C)[C@]1(OC(C)=O)CO[C@@H]1C[C@@H]2O` [PACLITAXEL], the IC50 worked out at 0.007 µM in the assay with PANC-1 [1], 1 µM in assay [2], 0.011 µM with DLD-1 and 0.02 µM with ASPC1.
